Experiment [1] has as its target T1, Uncharacterized protein (Gallus gallus) (UniProt F1NJH8).
T1 sequence (whole entry): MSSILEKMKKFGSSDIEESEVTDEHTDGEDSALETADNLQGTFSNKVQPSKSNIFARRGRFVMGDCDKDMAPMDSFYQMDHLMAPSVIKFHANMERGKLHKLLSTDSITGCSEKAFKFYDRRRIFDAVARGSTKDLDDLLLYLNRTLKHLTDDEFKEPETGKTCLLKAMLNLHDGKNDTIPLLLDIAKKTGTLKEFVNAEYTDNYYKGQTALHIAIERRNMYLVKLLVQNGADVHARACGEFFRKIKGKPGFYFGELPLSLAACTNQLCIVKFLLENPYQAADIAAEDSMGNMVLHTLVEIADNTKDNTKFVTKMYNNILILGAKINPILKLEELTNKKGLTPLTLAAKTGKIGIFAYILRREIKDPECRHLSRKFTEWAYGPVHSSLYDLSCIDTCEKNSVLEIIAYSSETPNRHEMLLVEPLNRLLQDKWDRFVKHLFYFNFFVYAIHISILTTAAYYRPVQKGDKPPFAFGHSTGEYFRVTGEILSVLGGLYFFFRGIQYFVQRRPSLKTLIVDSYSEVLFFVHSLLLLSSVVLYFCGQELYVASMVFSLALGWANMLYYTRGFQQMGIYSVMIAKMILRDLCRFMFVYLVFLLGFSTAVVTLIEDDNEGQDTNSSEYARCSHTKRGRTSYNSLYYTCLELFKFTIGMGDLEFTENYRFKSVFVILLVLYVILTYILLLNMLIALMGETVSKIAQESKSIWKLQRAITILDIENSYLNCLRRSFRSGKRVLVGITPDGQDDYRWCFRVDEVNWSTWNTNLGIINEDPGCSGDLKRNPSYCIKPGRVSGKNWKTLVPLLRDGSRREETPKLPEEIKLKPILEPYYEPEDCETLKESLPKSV
As to the kind of experiment: Antagonist activity at chicken TRPV1 receptor assessed as inhibition of capsaicin-induced calcium flux at 1 uM after 30 mins by cell based Fluo-4AM fluorescence assay relative to control.

Experiment [2] deals with Transient receptor potential cation channel subfamily V member 1 (Rattus norvegicus) (UniProt O35433). The experiment can be described thus: Antagonist activity at rat TRPV1 receptor expressed in HEK293T cells assessed as inhibition of capsaicin-induced calcium flux at 1 uM after 30 mins by Fluo-4AM based fluorescence assay relative to control. The format is cell-based. Conditions: HEK-293T. For orientation: Calcium flux is commonly read through the fluorescence of an indicator in the cells.
Chain of Transient receptor potential cation channel subfamily V member 1 (Rattus norvegicus) (O35433 whole entry): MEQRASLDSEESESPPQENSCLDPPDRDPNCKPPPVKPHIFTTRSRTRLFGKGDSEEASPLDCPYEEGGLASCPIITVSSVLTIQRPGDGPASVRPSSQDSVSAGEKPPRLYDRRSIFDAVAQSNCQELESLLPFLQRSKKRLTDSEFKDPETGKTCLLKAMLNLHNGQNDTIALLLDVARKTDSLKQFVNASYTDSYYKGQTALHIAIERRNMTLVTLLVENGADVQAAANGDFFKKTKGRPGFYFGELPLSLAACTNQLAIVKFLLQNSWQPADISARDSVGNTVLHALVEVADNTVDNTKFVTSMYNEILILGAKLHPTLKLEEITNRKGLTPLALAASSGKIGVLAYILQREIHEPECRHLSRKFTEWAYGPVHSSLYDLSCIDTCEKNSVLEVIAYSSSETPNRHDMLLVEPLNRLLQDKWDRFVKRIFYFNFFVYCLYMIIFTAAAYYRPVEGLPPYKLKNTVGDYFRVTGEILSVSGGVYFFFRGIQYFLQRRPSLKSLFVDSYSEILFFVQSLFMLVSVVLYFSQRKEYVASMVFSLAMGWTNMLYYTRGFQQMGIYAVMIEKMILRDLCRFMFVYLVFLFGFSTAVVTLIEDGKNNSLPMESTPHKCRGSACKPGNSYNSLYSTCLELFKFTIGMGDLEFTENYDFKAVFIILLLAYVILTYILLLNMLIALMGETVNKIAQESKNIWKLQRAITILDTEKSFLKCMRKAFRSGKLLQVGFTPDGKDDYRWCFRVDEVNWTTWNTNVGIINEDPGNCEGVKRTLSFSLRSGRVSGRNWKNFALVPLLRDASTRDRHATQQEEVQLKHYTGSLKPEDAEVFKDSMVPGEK

Experiment [3] shares this target. The experiment can be described thus: Antagonist activity at rat TRPV1 receptor expressed in HEK293T cells assessed as inhibition of temperature-induced calcium flux at 1 uM after 30 mins by Fluo-4AM based fluorescence assay relative to control. It counts as cell-based. Conditions: HEK-293T.
Experiment [4] concerns the target T2, Transient receptor potential cation channel subfamily V member 1 (Rattus norvegicus, UniProt O35433). The experiment can be described thus: Antagonist activity at rat TRPV1 receptor expressed in HEK293T cells assessed as inhibition of capsaicin-induced calcium flux after 30 mins by Fluo-4AM based fluorescence assay. The format is cell-based, HEK-293T.
Experiment [5] concerns the target T2, Transient receptor potential cation channel subfamily V member 1. The experiment can be described thus: Antagonist activity at rat TRPV1 receptor expressed in HEK293T cells assessed as inhibition of temperature-induced calcium flux after 30 mins by Fluo-4AM based fluorescence assay. The format is cell-based, HEK-293T.

What is called inhibition is the percentage by which the read-out fell short of the control. Usually IC50 stands for the midpoint of a concentration-inhibition curve.

Each structure is given as a SMILES string.

T2 sequence (O35433 whole entry): as above

`CC(C)(C)c1ccc(NC(=O)N2CCN(c3ncccc3Cl)CC2)cc1`: the results for the inhibition in experiment [1], in experiment [2] and in experiment [3] were 8.97%, 92.7% and 66.4%, respectively.
In the case of `CCCCCCC(=O)Nc1nnc(-c2ccc(O)c(OC)c2)s1`, in experiment [4], the IC50 turned out to be 770 pM. Moreover, the results for the inhibition in experiment [2] and in experiment [3] were 95.3% and 94%, respectively.
Take `CCCCCCCC(=O)Nc1nnc(-c2ccc(O)c(OC)c2)s1`: the inhibition was 81.2% in experiment [1], 97.7% in experiment [2] and 89.8% in experiment [3]. The IC50 in experiment [4] stood at 150 pM.
The like results for `CCCCCC(=O)Nc1nnc(-c2ccc(O)c(OC)c2)s1` were, in that order, 92.6%, 95.5%, 88.8% and 2610 pM.
In the case of `CCCCCCCCC(=O)Nc1nnc(-c2cc(I)c(O)c(OC)c2)s1`, the results for the inhibition in experiment [1], in experiment [2] and in experiment [3] were 80.1%, 96.9% and 91.9%, respectively. Also, the figures for the IC50 in experiment [4] and in experiment [5] were 340 pM and 150 pM, respectively.
Consider `CCCCCC(=O)Nc1nnc(-c2cc(I)c(O)c(OC)c2)s1`, for which the inhibition in experiment [1] worked out at 95.3%; in experiment [2] it was 96.6%; in experiment [3] it was 94.3%. For the same compound, the values for the IC50 in experiment [4] and in experiment [5] were 1470 pM and 290 pM, respectively.
The like results for `CCCCCCCC(=O)Nc1nnc(-c2cc(I)c(O)c(OC)c2)s1` were, in that order, 85.4%, 94.5%, 93.7%, 330 pM and 1090 pM.
Consider `CCCCCCC(=O)Nc1nnc(-c2cc(I)c(O)c(OC)c2)s1`, for which the IC50 in experiment [4] came out at 6070 pM. Moreover, the inhibition in experiment [2] was 90.8%; in experiment [3], 92.4%.
Take `CCCCCCCCC(=O)Nc1nnc(-c2ccc(O)c(OC)c2)s1`: the inhibition was 79.4% in experiment [1], 98.8% in experiment [2] and 92.9% in experiment [3]. Moreover, the IC50 in experiment [4] was determined as 180 pM; in experiment [5] it was 50 pM.

The values are drawn from ChEMBL document CHEMBL2413050, “Design and synthesis of conformationally restricted capsaicin analogues based in the 1, 3, 4-thiadiazole heterocycle reveal a novel family of transient receptor potential vanilloid 1 (TRPV1) antagonists” (Eur J Med Chem, 2013).
